Measurements published in ChEMBL document CHEMBL3352777, “Substituted thieno[2,3-b]thiophenes and related congeners: Synthesis, β-glucuronidase inhibition activity, crystal structure, and POM analyses” (Bioorg Med Chem, 2014).

Tests used:
[1] = target: Carbonic anhydrase (Homo sapiens) (UniProt P00918+P43166+P00915+P07451+P23280+O43570+Q9ULX7+Q16790+P22748+Q8N1Q1+Q9Y2D0+P35218); assay: Inhibition of carbonic anhydrase (unknown origin) at 500 uM; format: protein assay
Homo sapiens = organism: Homo sapiens; assay: Inhibition of alpha-chymotrypsin (unknown origin) using N-succinyl-L-phenylalanine-p-nitroanilide substrate at 500 uM
[2] = Inhibition of buttermilk xanthine oxidase (unknown origin) incubated for 10 mins by spectrophotometry
cells = settings: Homo sapiens, PC-3, 48 h
Description: Cytotoxic activity against human PC3 cells after 48 hrs by MTT assay

[3] = Inhibition of alpha-chymotrypsin (unknown origin) using N-succinyl-L-phenylalanine-p-nitroanilide substrate; design: species or system Homo sapiens
[4] = Inhibition of buttermilk xanthine oxidase (unknown origin) at 500 uM incubated for 10 mins by spectrophotometry
Carbonic anhydrase = assay: Inhibition of carbonic anhydrase (unknown origin); format: protein assay, Homo sapiens
[5] = target: T1, Beta-glucuronidase (Homo sapiens) (UniProt P08236); assay: Inhibition of beta-glucuronidase (unknown origin) at 500 uM using p-nitrophenyl-beta-D-glucuronide substrate incubated for 30 mins by spectrophotometry
T1 sequence (whole entry): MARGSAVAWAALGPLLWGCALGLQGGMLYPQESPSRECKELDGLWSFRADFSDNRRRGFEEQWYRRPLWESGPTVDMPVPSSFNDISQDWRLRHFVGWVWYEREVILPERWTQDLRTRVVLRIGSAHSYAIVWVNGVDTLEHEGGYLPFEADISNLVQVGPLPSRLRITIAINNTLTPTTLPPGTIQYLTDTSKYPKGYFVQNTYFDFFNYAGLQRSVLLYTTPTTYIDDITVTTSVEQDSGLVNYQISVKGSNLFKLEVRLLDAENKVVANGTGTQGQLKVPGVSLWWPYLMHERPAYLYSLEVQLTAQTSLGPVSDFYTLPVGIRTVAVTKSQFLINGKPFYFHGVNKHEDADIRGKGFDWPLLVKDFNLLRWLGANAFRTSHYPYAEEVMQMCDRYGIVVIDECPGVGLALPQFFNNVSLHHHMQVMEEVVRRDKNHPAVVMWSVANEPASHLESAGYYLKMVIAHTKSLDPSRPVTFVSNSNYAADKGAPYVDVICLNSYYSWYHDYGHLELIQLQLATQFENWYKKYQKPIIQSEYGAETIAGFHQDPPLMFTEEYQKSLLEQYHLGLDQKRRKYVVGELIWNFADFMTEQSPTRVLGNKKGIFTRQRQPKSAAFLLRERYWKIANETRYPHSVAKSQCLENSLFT

SMILES	inhibition [1] [%]	inhibition (Homo sapiens) [%]	IC50 (cells) [µM]	further results
Cc1c(C(=O)c2cc(C(=O)O)c(=O)[nH]n2)sc2sc(C(=O)c3cc(C(=O)O)c(=O)[nH]n3)c(-c3ccccc3)c12	< 50	< 50	> 30	IC50 [2]: 121 µM
CC(C)C[C@H](NC(=O)[C@@H](NC(=O)N[C@@H](Cc1ccccc1)C(=O)O)C1CCNC(=N)N1)C(=O)N[C@H](C=O)Cc1ccccc1 (stereo partly drawn) [CHYMOSTATIN]	–	–	–	IC50 [3]: 5.7 µM
Cc1c(C(=O)/C(C=O)=N/Nc2ccccc2)sc2sc(C(=O)/C(C=O)=N/Nc3ccccc3)c(-c3ccccc3)c12	< 50	< 50	13.8	inhibition [4]: < 50%
Cc1c(C(=O)/C=C/NO)sc2sc(C(=O)/C=C/NO)c(-c3ccccc3)c12	–	–	> 30	–
Cc1c(-c2ccc(C#N)c(=O)[nH]2)sc2sc(-c3ccc(C#N)c(=O)[nH]3)c(-c3ccccc3)c12	–	–	–	IC50 (Carbonic anhydrase): 270.13 µM; inhibition [4]: < 50%
CCOC(/C=C/C(=O)c1sc2sc(C(=O)/C=C/C(OCC)(OCC)OCC)c(-c3ccccc3)c2c1C)(OCC)OCC	< 50	< 50	> 30	–
Oc1ncnc2[nH]ncc12 [ALLOPURINOL]	–	–	–	IC50 [2]: 2 µM
Cc1c(C(/C=C/N(C)C)=C(C#N)C#N)sc2sc(C(/C=C/N(C)C)=C(C#N)C#N)c(-c3ccccc3)c12	–	–	> 30	IC50 [3]: 202 µM
Cc1c(C(=O)/C=C/N(C)C)sc2sc(C(=O)c3ccc(-c4sc5sc(C(=O)/C=C/N(C)C)c(-c6ccccc6)c5c4C)nc3)c(-c3ccccc3)c12	< 50	< 50	> 30	–
Cc1c(C(=O)/C=C/N(C)C)sc2sc(C(=O)/C=C/N(C)C)c(-c3ccccc3)c12	< 50	< 50	> 30	inhibition [4]: < 50%; inhibition [5]: < 50%
Cc1c(C(=O)c2cc(C#N)c(=N)n(-c3ccccc3)n2)sc2sc(C(=O)c3cc(C#N)c(=N)n(-c4ccccc4)n3)c(-c3ccccc3)c12	–	–	2.61	–
CC(=C(C#N)C#N)c1sc2sc(C(C)=C(C#N)C#N)c(-c3ccccc3)c2c1C	–	< 50	> 30	IC50 (Carbonic anhydrase): 441.72 µM; inhibition [4]: < 50%
CCOc1nc(-c2sc3sc(-c4ccc(C#N)c(OCC)n4)c(-c4ccccc4)c3c2C)ccc1C#N	< 50	< 50	> 30	IC50 [2]: 14.4 µM
CC(=O)c1ccc(-c2sc3sc(-c4ccc(C(C)=O)c(C)n4)c(-c4ccccc4)c3c2C)nc1C	< 50	–	> 30	–
Cc1c(/C(=C/C=C(\C#N)C(N)=O)N(C)C)sc2sc(/C(=C/C=C(\C#N)C(N)=O)N(C)C)c(-c3ccccc3)c12	< 50	–	> 30	IC50 [2]: 43.1 µM
Cc1c(-c2ccc(C(=O)O)c(=O)[nH]2)sc2sc(-c3ccc(C(=O)O)c(=O)[nH]3)c(-c3ccccc3)c12	< 50	< 50	> 30	inhibition [4]: < 50%
CCOC(=O)c1nn(-c2ccccc2)cc1C(=O)c1sc2sc(C(=O)c3cn(-c4ccccc4)nc3C(=O)OCC)c(-c3ccccc3)c2c1C	–	< 50	> 30	inhibition [5]: < 50%
COc1cccc2c1C(=O)c1c(O)c3c(c(O)c1C2=O)C[C@@](O)(C(=O)CO)C[C@@H]3O[C@H]1C[C@H](N)[C@H](O)[C@H](C)O1 [DOXORUBICIN]	–	–	0.912	–
